Measured values from publication PMC6309140, “Synthesis and Evaluation of a New Type of Small Molecule Epigenetic Modulator Containing Imidazo[1,2-b][1,2,4]triazole Motif” (Frontiers in Chemistry, 2018).
Where two headings read alike, the source gives them in different places.

Legend:
[1] = test system: EGFP reporter gene silenced by DNA methylation (B2-17 cells); assay: Compound effective assay: derepression of EGFP reporter in B2-17 reporter cells (image-based, titration); assay type: cell-based; conditions: for Emax: 72 h, read-out: Maximal RGFP% (maximal percentage of EGFP+ cells in the dose-response curve); for EC50: dose-response of EGFP+ cells, read-out: EC50 (relative half maximal effect concentration); for activity of derepressing the EGFP reporter gene silenced by DNA methylation (in words): compared with hit compound LX-3
Excerpt: (§1) To identify novel small molecules targeting gene repression, we devised an image-based high-throughput screening system using the engineered HEK 293 F cell (termed as B2-17 cells) as report cell line. A chemical library containing 308,251 small molecules was screened in this system. Purposed for unbiased compound screening, this library had been used in a variety of studies (Sun et al., [2012]; Wang et al., [2013]; Dong et al., [2015]; Li et al., [2016]). Hundred and fifty eight compounds which reactivated reporter genes in more than half of cells were selected as hits. Next, we performed titration experiments for all these hits in the B2-17 cell line. The efficacy of each compound was evaluated by its maximal percentage of EGFP^+ cells in the dose-response curve (maximal RGFP) and relative half maximal effect concentration (EC50). The toxicity of the hits was also tested in parallel, measured by number of viable cells in each treatment. The assay is based on quantitative analysis of ATP, an indicator of metabolically active cells. For each compound, we calculated the relative half maximal growth inhibitory concentration (IC50), based on the abovementioned assay.
Procedure for cell culture and establishment of the reporter cell line were reported in our previously published paper (Li et al., [2018]).
Before plating cells, 384-well plates (ViewPlate, PerkinElmer) were coated with PDL (poly-D-lysine, Sigma). For each well, 1,300 B2-17 cells were plated by using a Matrix Wellmate microplate dispenser (Thermo Scientific). Then, 0.25 μL of compound was added to each well by using a versatile pipetting robot, the Biomek FX workstation (Beckman Coulter), to give a final compound concentration of 5 μM. After treatment for 72 h, the cell nuclei were stained by Hoechst 33342 (Sigma) before imaging.
The cells were imaged with Opera LX (PerkinElmer, three views per well by using 10 x (air) objective lens). Images were analyzed with the Columbus system, the mean percentage of EGFP+ cells (RGFP) was obtained to extrapolate the number of EGFP expressing cells and Hoechst-stained nuclei.
For the titration assay, the positive compounds were diluted in DMSO at concentrations ranging from 0.625 to 4 mM. Then, the B2-17 cells were treated by gradient compound and imaged as described before.
For each compound, a dose-response series was generated by using Origin 6.0 Pro software. The dot plot was fit by a DoseResp curve and then the EC50 was calculated.

HEK 293 F cells = assay: Viability assays (CellTiter-Glo, ATP); assay type: cell-based; conditions: viable cells by ATP quantitation, 3 days incubation, Figure 2 says B2-17 cells, method says HEK 293 F cells, read-out: IC50 (relative half maximal growth inhibitory concentration)
Excerpt: as §1
HEK 293 F cells were plated in 384-well, flat-bottom, tissue culture dishes (Corning) and treated with compounds, incubated 3 days, and assayed for viability using the CellTiter-Glo Luminescent Cell Viability Assay (Promega) according to the manufacturer's protocol. The […] with an EnSight plate reader (Perkin Elmer). Data were normalized to the untreated control (100% viability). Each treatment was tested in two independent assays, each containing 3 replicates. The titration-viability curves of each compound were also generated by using Origin 6.0 Pro software.

Molecule | Emax ([1]; B2-17 cells, 72 h treatment) | EC50 ([1]; B2-17 cells, 72 h treatment) | activity of derepressing the EGFP reporter gene silenced by DNA methylation (in words) [1] | IC50 (HEK 293 F cells; HEK293F, 72 h) | Maximal RGFP% (maximal percentage of EGFP+ cells in the dose-response curve) ([1]; B2-17 cells, 72 h treatment) | IC50 (HEK 293 F cells)
COc1ccccc1-c1nc2n(CC(=O)c3ccc(Br)cc3)c3ccccc3n2n1 [22b, 1-(4-bromophenyl)-2-(2-(2-methoxyphenyl)-4H-benzo[4,5]imidazo[1,2-b][1,2,4]triazol-4-yl)ethan-1-one] | 21% | 6.8 µM | decreased significantly or even disappeared | 3.3 µM |  | 
O=C(Cn1c2ccccc2n2nc(-c3nccs3)nc12)c1ccc(Br)cc1 [22c, 1-(4-bromophenyl)-2-(2-(thiazol-2-yl)-4H-benzo[4,5]imidazo[1,2-b][1,2,4]triazol-4-yl)ethan-1-one] | 48% | 4.5 µM |  | 5.3 µM |  | 
Cc1ccsc1-c1nc2n(CC(=O)c3ccc(Br)cc3)c3ccccc3n2n1 [22d, 1-(4-bromophenyl)-2-(2-(3-methylthiophen-2-yl)-4H-benzo[4,5]imidazo[1,2-b][1,2,4]triazol-4-yl)ethan-1-one] | 19% |  | disappeared | 12.3 µM |  | 
O=C(Cn1c2ccccc2n2nc(-c3ccccn3)nc12)c1ccc(Br)cc1 [22e, 1-(4-bromophenyl)-2-(2-(pyridin-2-yl)-4H-benzo[4,5]imidazo[1,2-b][1,2,4]triazol-4-yl)ethan-1-one] | 6% |  |  | 2.8 µM |  | 
O=C(Cn1c2ccccc2n2nc(Cc3ccccc3)nc12)c1ccc(Br)cc1 [22f, 2-(2-benzyl-4H-benzo[4,5]imidazo[1,2-b][1,2,4]triazol-4-yl)-1-(4-bromophenyl)ethan-1-one] | < 22% | 6.4 µM |  | 4.7 µM |  | 
C=CCc1cc(/C=N/Nc2ccc(Br)cc2)cc(OCC)c1OC [LX-1] | 72% | 1.9 µM |  | 8.5 µM |  | 
CCc1ccc(CNc2ccc(CNc3ncn[nH]3)cc2)cc1 [LX-2] | 67% | 2.2 µM |  | 7.8 µM |  | 
Cc1cc(NC(=O)CSc2nc3ccc(Br)cc3c3nc4ccccc4n23)no1 [LX-6] | 71% | 4.2 µM |  | 5 µM |  | 
COc1ccc(NC(=O)c2ccco2)cc1NC(=O)c1ccc(-c2cccc([N+](=O)[O-])c2)o1 [LX-7] | 79% | 1.9 µM |  | 3.2 µM |  | 
O=C(Cn1c2ccc(Cl)cc2n2nc(-c3cccs3)nc12)c1ccc(Br)cc1 [compound 19, 1-(4-bromophenyl)-2-(7-chloro-2-(thiophen-2-yl)-4H-benzo[4,5]imidazo[1,2-b][1,2,4]triazol-4-yl)ethan-1-one] | 63% | 14.9 µM | significantly decreased | 14.3 µM |  | 
Cc1ccc(-c2ccc(-c3nc4n(CC(=O)c5ccc(Br)cc5)c5ccccc5n4n3)s2)cc1 [compound 25, 1-(4-bromophenyl)-2-(2-(5-(p-tolyl)thiophen-2-yl)-4H-benzo[4,5]imidazo[1,2-b][1,2,4]triazol-4-yl)ethan-1-one] | 61% | 29.9 µM | significant decrease or disappearance | 10.9 µM |  | 
O=C(Cn1c2ccccc2n2nc(-c3ccc(Cl)s3)nc12)c1ccc(Br)cc1 [compound 29, 1-(4-bromophenyl)-2-(2-(5-chlorothiophen-2-yl)-4H-benzo[4,5]imidazo[1,2-b][1,2,4]triazol-4-yl)ethan-1-one] | 83% | 8.9 µM | little reduction of potency | 13.6 µM |  | 
(4-bromophenyl) (2-(thiazol-2-yl)-4H-benzo[4,5] imidazo[1,2-b][1,2,4]triazol-4-yl)methanone [31a] |  |  | disappeared |  | 4.0% | 7.8 µM
